The values below come from US12377077B2, “Methods and formulations to treat mitochondrial dysfunction” (The Board of Trustees of the Leland Stanford Junior …, priority 2018, dated 2025).

“Also recorded” adds a separate entry of the source.

Assay [1] has as its system SURF1-deficient fibroblasts. The experiment in a line: Cellular morphology by phase-contrast microscopy. The assay is classed as cell-based, human. The settings on record: vs DMSO. An excerpt: Fibroblasts in tissue culture were visualized by phase-contrast microscopy with a Leica DM IRB microscope at ×10 magnification, and images were taken with the Hamamatsu ORCA-ER camera.

Assay [2] deals with SURF1-deficient fibroblasts. The experiment in a line: Cell viability by Calcein AM in mitochondrial stressor media. The format is cell-based, human. The following applies: for cellular viability, dose dependent manner: SURF1 deficient fibroblasts, FIG. 2F. The procedure: (§1) Fibroblasts previously derived from four patients with primary mitochondrial disease (Surf1, Complex I, Cox10, Polg), three patients with NGLY1 deficiency and four normal controls were used for the study. All samples were obtained with informed consent and approved by the Stanford IRB. Fibroblasts were maintained in DMEM medium containing 8.3 mM glucose and supplemented with 10% fetal bovine serum (FBS)(Fisher Scientific), 1% Penicillin-Streptomycin (10,000 U/mL)(Life Technologies), 1% glutaMAX (Life Technologies), 1% uridine (5 mg/ml) and 1% pyruvate (11 mg/ml) at 37° C., 5% CO2. For the screening of various compounds, 15×10^3 cells/500 ul media were seeded in quadruplets on 24 well microtiter plates. The following day, the medium was removed, wells washed with PBS and replaced with a mitochondrial stressor media containing DMEM, 1% Penicillin-Streptomycin (10,000 U/mL)(Life Technologies), 10% FCS (Fisher Scientific), 1 mM Galactose (Sigma Aldrich), and 25 μM sodium azide with or without the following compounds: 1 mM AICAR (Medchem Express), 1 mM Metformin (Sigma Aldrich), 100 μM PT1 (Santa Cruz Biotechnology), 100 μ[…] Express). Following treatment with the various compounds, tissue cultures were analyzed for growth, oxygen consumption rate, and ATP levels. Methods: Cell growth was measured by a fluorometric method using Calcein AM (Anaspec). Mitochondrial stressor media was removed, wells washed with PBS and then incubated with 500 ul/well of 800 nM Calcein AM in PBS for 30 min at 37 C, 5% CO2. Cell viability was measured by values obtained using a 485 nm excitation with the Flouroskan Ascent Microplate Fluorometer (Thermo Scientific).

The test system of assay [3] is Sco2 deficient mice. Briefly: Hanging wire test in Sco2 mice. The settings on record: KO/KI mice; vehicle 173.2 sec. The assay is classed as in vivo. An excerpt: (§2) Methods: To examine the effects of AMPK agonists on in vivo systems with mitochondrial dysfunction, MK8722 was used to treat a mouse model of mitochondrial disease. These mice have mitochondrial Complex IV deficiency caused by deficient cytochrome C oxidase assembly protein, SCO2, and harbor a Sco2 knock-out (KO) allele and a Sco2 knock-in (KI) allele expressing an E→K mutation at position 129 (E129K). The E129K mutation corresponds to the E140K mutation found in almost all human SCO2-mutated patients. (See e.g., Yang et al, Analysis of mouse models of cytochrome c oxidase deficiency owing to mutations in Sco2. Hum Mol Genet. 2010 Jan. 1; 19(1):170-80; the disclosure of which is incorporated by reference herein in its entirety.) The predominant phenotype of Sco2 deficient mice is reduced locomotor function and ocular defects, both common findings in patients with primary mitochondrial disease. The Sco2 mice were grouped into four treatment groups: Sco2 KI/KO+MK8722, Sco2 KI/KO+DMSO (vehicle), Control KI/WT+MK8722, Control KI/WT+DMSO with 7-9 mice per group. 1.5-month old Sco2 mice were treated once daily by oral gavage with MK8722 (10 mg/kg) or vehicle (DMSO) for 14 weeks. Locomotor function was evaluated using the activity chamber, rotarod, and hanging-wire tests and ocular structure using optical coherence tomography (OCT).

For assay [4], the system named is glycogen content. Briefly: Histological assessment of glycogen in skeletal muscle. The format is in vivo. The following applies: Sco2 KI/KO mice vs untreated; FIG. 11E.
Excerpt: as §2

Assay [5] deals with Sco2 deficient mice. Briefly: Activity chamber test in Sco2 mice. The assay is classed as in vivo.
Excerpt: as §2

Assay [6] relates to mitochondrial cytochrome C oxidase (CytoC) and succinate dehydrogenase (SDH) activities. Briefly: Histological staining of skeletal muscle for mitochondrial enzyme activities. The settings on record: Sco2 KI/KO mice vs vehicle, FIG. 11D. The assay is classed as in vivo.
Excerpt: as §2

For assay [7], the system named is Sco2 deficient mice. The experiment in a line: Ocular structure by optical coherence tomography (OCT) in Sco2 mice. The assay is classed as in vivo. The following applies: for thickness of the retinal nerve fiber layer (RNFL): 10 mg/kg once daily oral gavage.
Excerpt: as §2

Assay [8] concerns phosphorylated ACC (pACC). Briefly: pACC western blot in skeletal muscle of Sco2 KI/KO mice. The format is in vivo. The settings on record: KI/KO mice vs vehicle; FIGS. 11F-11G.
Excerpt: as §2

Assay [9] relates to Sco2 deficient mice. The experiment in a line: Rotarod running test in Sco2 mice. The format is in vivo. The settings on record: KO/KI mice; vehicle 176.1 sec.
Excerpt: as §2

Assay [10] relates to phosphorylated ACC (pACC). The experiment in a line: pACC western blot in mitochondrial-defective patient cells. The assay is classed as cell-based, human. The settings on record: mitochondrial-defective patient cells vs DMSO; FIG. 16A.
Assay [11] relates to AMPK. Briefly: AMPK activity used in determining EC50 (FIG. 16B). The assay is classed as biochemical.
For assay [12], the system named is CI-deficient fibroblasts. Briefly: Cell viability by Calcein AM in mitochondrial stressor media. The format is cell-based, human. The following applies: FIG. 2C. The procedure: Fibroblasts previously derived from four patients with primary mitochondrial disease (Surf1, Complex I, Cox10, Polg), three patients with NGLY1 deficiency and four normal controls were used for the study. All samples were obtained with informed consent and approved by the Stanford IRB. Fibroblasts were maintained in DMEM medium containing 8.3 mM glucose and supplemented with 10% fetal bovine serum (FBS)(Fisher Scientific), 1% Penicillin-Streptomycin (10,000 U/mL)(Life Technologies), 1% glutaMAX (Life Technologies), 1% uridine (5 mg/ml) and 1% pyruvate (11 mg/ml) at 37° C., 5% CO2.
For the screening of various compounds, 15×10^3 cells/500 ul media were seeded in quadruplets on 24 well microtiter plates. The following day, the medium was removed, wells washed with PBS and replaced with a mitochondrial stressor media containing DMEM, 1% Penicillin-Streptomycin (10,000 U/mL)(Life Technologies), 10% FCS (Fisher Scientific), 1 mM Galactose (Sigma Aldrich), and 25 μM sodium azide with or without the following compounds: 1 mM AICAR (Medchem Express), 1 mM Metformin (Sigma Aldrich), 100 μM PT1 (Santa Cruz Biotechnology), 100 μM A-769662 (Medchem Express), 100 μM C24 (Medchem Express). Following treatment with the various compounds, tissue cultures were analyzed for growth, oxygen consumption rate, and ATP levels.
Methods: Cell growth was measured by a fluorometric method using Calcein AM (Anaspec). Mitochondrial stressor media was removed, wells washed with PBS and then incubated with 500 ul/well of 800 nM Calcein AM in PBS for 30 min at 37 C, 5% CO2. Cell viability was measured by values obtained using a 485 nm excitation with the Flouroskan Ascent Microplate Fluorometer (Thermo Scientific).

The subject of assay [13] is POLG-deficient fibroblasts. The assay is described as above. The assay is classed as cell-based, human. The settings on record: FIG. 2D. How it is done: as §1
In assay [14] the test system is COX10-deficient fibroblasts. Described as above. The following applies: FIG. 2B. The assay is classed as cell-based, human. How it is done: as §1

Consider `OCC1(c2ccc(-c3cc4nc(O[C@@H]5CO[C@H]6[C@@H]5OC[C@H]6O)[nH]c4cc3Cl)cc2)CC1` [PF-739], for which the cellular morphology result in assay [1] is reported as “improved cellular morphology; also recorded: improved cell morphology”. In addition, in assay [2], the “cellular viability, dose dependent manner” value (from here on “cellular viability”) is on record as “increasing levels of cellular viability; also recorded: improved the viability”.

For the compound `O[C@@H]1CO[C@H]2[C@@H]1OC[C@H]2Oc1nc2nc(-c3ccc(-c4ccccc4)cc3)c(Cl)cc2[nH]1` [MK-8722], the hanging wire time in [3] worked out at 312.5 s. Further, in assay [4], the “glycogen content of skeletal muscle” value is on record as “increased glycogen content”. Moreover, in [5] (KO/KI mice, 8 weeks of treatment, vehicle 1516.7 cm), the “distance moved in the activity chamber” value amounted to 2337.8 cm. The “activity in activity chamber” value in assay [5] (knock-out/knock-in mice, FIG. 11A) is reported as “returns to levels comparable with knock-in/wild-type mice”. Further, the “intensity of histological stains indicative of CytoC and SDH activities” value in [6] is given as “increased”. In addition, the “thickness of the retinal nerve fiber layer (RNFL)” value was determined as 74.7 μm in assay [7] (KI/WT mice, vehicle 72.7 μm) and 77 μm in assay [7] (Sco2 KI/KO mice, vehicle 74.1 μm). Also, the “retinal thickness, degradation” value in assay [7] (treated vs vehicle (VEH) mice, FIG. 9E) is listed as “less degradation”. In addition, the cellular morphology entry in assay [1] is “improved cellular morphology; also recorded: improved cell morphology”. In assay [8], the “ACC phosphorylation in skeletal muscle” value is reported as “increased phosphorylation of ACC; also recorded: increase in ACC phosphorylation”. For the same compound, the rotarod running time in assay [9] was 248.1 s. Further, in [2], the “cellular viability” value is recorded as “increasing levels of cellular viability; also recorded: improved the viability”.

Take `O=C(O)c1c[nH]c2cc(Cl)c(-c3ccc(C4(O)CCC4)s3)cc12` [EV8016, 6-chloro-5-(5-(1-hydroxycyclobutyl)thiophen-2-yl)-1H-indole-3-carboxylic acid]: in assay [10], the “ACC phosphorylation (AMPK activation)” value was “capable of activating AMPK”. This compound also displayed an EC50 in [11] of 232 nM.

`NC(=O)c1ncn([C@@H]2O[C@H](CO)[C@@H](O)[C@H]2O)c1N` [AICAR]: the survival / viability result in assay [12], in assay [13] and in assay [14] was “does not improve cell viability; also recorded: did not improve survival” in each case. Moreover, in assay [2] (SURF1 cells, vs untreated control treated with PBS), the “mean cell survival increased” value is listed as 57%.

In the case of `Cc1ccc(OCCSc2ncccn2)c(Br)c1` [ZLN024], in [12], the survival / viability result was “improved survival”.

For `N#Cc1c(O)c2c(-c3ccc(-c4ccccc4O)cc3)csc2[nH]c1=O` [Compound A-769662], the survival / viability result in assay [12] and in [13] was “improved survival” in each case.

The compound `O=C(O)c1c[nH]c2cc(Cl)c(-c3ccc(C4(O)CCC4)cc3)cc12` [PF-06409577] showed an EC50 in assay [11] of […]. In addition, the values for the cellular morphology entry in assay [1] and in [1] (listed as PF-04609577) were “improved cellular morphology” and “improved cell morphology”, respectively. Besides, the “cellular viability” value in assay [2] was “increasing levels of cellular viability”; in assay [2] (listed as PF-04609577), “improved the viability”.
